± gives the standard deviation of the averaged measurements.
How the values were obtained:
Assay in all cases: LOEC (log10 uM (lowest observed effect concentration))
Perfluorodecanoic acid = compound: O=C(O)C(F)(F)C(F)(F)C(F)(F)C(F)(F)C(F)(F)C(F)(F)C(F)(F)C(F)(F)C(F)(F)F [Perfluorodecanoic acid]
Experimental: (§1)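 BioMAP Diversity Plus panel in human primary cell co-cultures, 4 concentrations in duplicate blinded samples. Responses are log10 fold change versus DMSO control, processed with tcpl v2.1.0. A hit is called when responses at any concentration exceed the cutoff (the larger of 3*bmad or log10(1.2)); the lowest observed effect concentration (modl_ga, log10 uM) is reported for hits.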

[1] = compound: CCN(CCO)S(=O)(=O)C(F)(F)C(F)(F)C(F)(F)C(F)(F)C(F)(F)C(F)(F)C(F)(F)C(F)(F)F [N-Ethyl-N-(2-hydroxyethyl)perfluorooctanesulfonamide]
Experimental: as §1

[2] = compound: C[N+](C)(C)CCCNS(=O)(=O)C(F)(F)C(F)(F)C(F)(F)C(F)(F)C(F)(F)C(F)(F)C(F)(F)C(F)(F)F [Perfluorooctanesulfonamido ammonium iodide]
Experimental: as §1

[3] = compound: OCCCC(F)(F)C(F)(F)C(F)(F)C(F)(F)C(F)(F)C(F)(F)C(F)(F)F [7:3 Fluorotelomer alcohol]
Experimental: as §1

[4] = compound: OCCC(F)(F)C(F)(F)C(F)(F)C(F)(F)C(F)(F)C(F)(F)F [6:2 Fluorotelomer alcohol]
Experimental: as §1

Test System | LOEC (log10 uM) (Perfluorodecanoic acid) | LOEC (log10 uM) [1] | LOEC (log10 uM) [2] | LOEC (log10 uM) [3] | LOEC (log10 uM) [4]
LPS IL1a down | 1.78 | 1.3 | 1.54 ± 0.34 | – | –
IMphg ESelectin down | 1.78 | – | – | – | –
LPS VCAM1 down | 1.78 | 1.78 | 1.78 | 1.54 ± 0.34 | –
IMphg MIP1a up | – | 1.3 | – | 1.78 | –
IMphg ESelectin up | – | 0.845 | – | – | –
hDFCGF TIMP1 down | 1.78 | – | – | 1.3 | 1.78
LPS TNFa down | 1.78 | – | 1.3 | 1.54 ± 0.34 | –
hDFCGF CollagenI down | – | – | – | 1.3 | 1.78
BE3C IL1a down | 1.3 | 1.54 ± 0.34 | – | 1.78 | –
BF4T IL8 down | – | – | – | 1.78 | –
CASM3C VCAM1 down | 1.78 | 1.07 ± 0.32 | – | 1.3 | –
4H SRB down | 1.78 | 1.54 ± 0.34 | – | 1.78 | –
BE3C EGFR down | – | 1.78 | – | 1.78 | –
BT xTNFa down | – | 1.3 | 1.54 ± 0.34 | 1.3 | 1.78
BF4T MMP1 down | 1.3 | – | – | – | –
CASM3C Thrombomodulin up | – | 1.3 | – | – | –
hDFCGF TIMP2 up | – | 0.845 | 1.07 ± 0.32 | – | –
KF3CT SRB down | 1.78 | – | 1.78 | 1.54 ± 0.34 | –
BT sIgG down | – | 1.3 | 1.78 | 1.54 ± 0.34 | –
CASM3C MIG down | – | 1.3 | – | 1.3 | –
MyoF IL8 down | – | 0.845 | – | – | –
CASM3C MCSF down | – | – | – | 1.54 ± 0.34 | –

Test System | LOEC (log10 uM) (Perfluorodecanoic acid) | LOEC (log10 uM) [1] | LOEC (log10 uM) [2] | LOEC (log10 uM) [3] | LOEC (log10 uM) [4]
LPS Thrombomodulin up | – | 0.573 ± 0.39 | – | – | –
BF4T MMP3 down | 1.54 ± 0.34 | – | – | 1.78 | –
SAg MIG down | 1.78 | – | – | 1.78 | –
LPS TissueFactor down | 1.78 | – | – | 1.78 | –
BF4T VCAM1 down | 1.3 | – | – | 1.78 | –
SAg SRB down | 1.78 | 1.3 | 1.78 | 1.78 | –
3C TissueFactor up | – | – | 1.78 | – | –
BE3C tPA down | 1.3 | – | 1.78 | 1.78 | –
BF4T Keratin818 down | 1.3 | – | 1.78 | 1.78 | –
3C MIG down | 1.78 | – | – | 1.78 | 1.78
LPS MCP1 down | 1.78 | 1.78 | – | 1.54 ± 0.34 | –
BT xIL17A down | – | 1.3 | 1.78 | 1.3 | –
BF4T uPA down | 1.3 | – | – | 1.78 | –
BE3C MMP1 down | 1.3 | – | – | 1.78 | –
IMphg SRB.Mphg down | 1.78 | – | 1.04 ± 1 | – | –
BE3C PAI1 down | 1.3 | 1.78 | – | 1.78 | –
LPS CD69 down | 1.78 | 0.845 | – | 1.78 | –
3C uPAR down | 1.78 | – | – | 1.78 | 1.78
BE3C uPAR down | 1.3 | 1.78 | – | 1.78 | –
CASM3C LDLR down | – | 1.07 ± 0.32 | – | 1.78 | –
4H MCP1 down | 1.78 | – | – | 1.78 | –
hDFCGF IL8 down | 1.78 | – | 1.78 | 1.3 | 1.78

Test System | LOEC (log10 uM) (Perfluorodecanoic acid) | LOEC (log10 uM) [1] | LOEC (log10 uM) [2] | LOEC (log10 uM) [3] | LOEC (log10 uM) [4]
SAg CD40 down | 1.78 | 1.78 | 1.78 | 1.78 | –
IMphg SRB down | 1.78 | 1.78 | 1.78 | 1.78 | –
BE3C ITAC down | 1.3 | 1.78 | – | 1.78 | –
KF3CT TIMP2 down | 1.78 | – | – | 1.3 | –
4H VCAM1 down | 1.78 | – | – | 1.78 | –
SAg CD69 down | 1.78 | 1.54 ± 0.34 | – | 1.78 | –
hDFCGF TIMP2 down | 1.3 | – | – | 1.3 | 1.78
4H VEGFRII up | – | – | 1.78 | – | –
SAg CD38 down | 1.78 | 1.3 | – | 1.54 ± 0.34 | –
IMphg CD69 down | 1.78 | 1.3 | 1.3 | – | –
BE3C MIG down | 1.3 | 1.78 | – | 1.78 | –
KF3CT MIG down | 1.78 | 1.78 | – | 1.54 ± 0.34 | –
MyoF bFGF down | 1.78 | – | 1.78 | 1.78 | –
BE3C uPA down | 1.3 | 1.78 | – | 1.78 | –
CASM3C SRB down | – | 1.3 | – | 1.54 ± 0.34 | –
hDFCGF ICAM1 down | 1.78 | – | – | 1.3 | 1.78
LPS TissueFactor up | – | 1.07 ± 0.32 | – | – | –
CASM3C PAI1 down | – | – | – | 1.78 | –
3C VCAM1 down | 1.78 | – | – | 1.3 | –
BF4T MMP3 up | – | 1.78 | 1.78 | – | –
3C ICAM1 down | 1.78 | – | – | 1.78 | 1.78

— the supplement of paper PMC10331698
